Assay results from patent US7611630B2, “Method and device for evaluation of pharmaceutical compositions” (Bend Research, Inc., priority 2004, dated 2009).
In brackets after ≈: the same amount, converted by molar mass.

Legend:
[1] = membrane-permeation test with un-treated (hydrophobic) microporous membrane; format: in vitro ADME
Description: A series of tests were performed using the procedure outlined in Example 1 except that an un-treated ACCUREL® PP 1E microporous polypropylene membrane was utilized in the test apparatus. The contact angle of a drop of water on the feed side of the membrane was greater than about 100°, and thus was hydrophobic. The flux of Drug 1 across the membrane was determined using the procedures outlined in Example 1 as a function of the amount of Drug 1 added to the feed solution. […] Without wishing to be bound by any particular theory or mechanism of action, it is believed that without the hydrophilic surface, particles of crystalline drug contacted the permeate solution (decanol) directly and dissolved into the decanol permeate solution, resulting in high maximum fluxes of Drug 1 across the membrane.

[2] = in vivo oral dosing of OPC, plasma concentration; conditions: dog, beagle dogs, Fed
Description: The compositions tested in vitro in Examples 3-6 were tested in vivo to determine whether the in vitro results correlate with the in vivo results. For Examples 7 and 8, the composition was the same as that used in Example 3 (25% Drug 1:HPMCAS-M dispersion) dosed in the fasted state, and fed state, respectively. For Examples 9 and 10, the composition was the same as that used in Example 4 (crystalline Drug 1) dosed in the fasted state and fed state, respectively.
The compositions were orally dosed to beagle dogs in the form of an oral powder for constitution (OPC) by suspending the composition in about 15 mL of a solution of 3 wt % polyethylene glycol (PEG) with a molecular weight of 3,350 daltons, 0.5 wt % methylcellulose, and 0.15 wt % Polysorbate 80 in sterile water. In each case a sufficient amount of the pharmaceutical composition was used such that the OPC contained 90 mgA of Drug 1. The thus-formed OPCs were then dosed to dogs in either the fed state or fasted state (fasted overnight). Blood was collected from the jugular vein of the dogs before dosing and at various time points after dosing. To 100 μL of each plasma sample, 5 mL of methyl-tert-butyl ether (MTBE) and 1 mL of 500 mM sodium carbonate buffer (pH 9) were added; the sample was vortexed for 1 minute and then centrifuged for 5 minutes. The aqueous portion of the sample was frozen in a dry-ice/acetone bath, and the MTBE layer was decanted and evaporated in a vortex evaporator. Dried samples were reconstituted in 100 μL of mobile phase (33% acetonitrile and 67% of 0.1% formic acid in water). Analysis was carried out by HPLC.
The results of these tests are shown in Table 7, where Cmax,24 is the maximum concentration in the blood plasma during the first 24 hours, Tmax is the time to achieve the maximum concentration in the blood plasma and AUC0-24 is the concentration in the blood plasma area under the curve in the first 24 hours.

[3] = partition coefficient between organic fluid and water, from solubility ratio
Text: [formula] where m is the rate at which drug is transported across the membrane (g/sec), Vp is the volume of the permeate solution (cm^3), [D]p is the concentration of drug in the permeate solution (g/cm^3), t is the time (sec), am is the membrane area (cm^2), Pov is the overall permeability coefficient (cm/sec), [Ddissolved]f is the concentration of dissolved drug in the feed solution (g/cm^3), and kp,mem is the partition coefficient of drug between the organic fluid and water, which is defined as the ratio of (1) the concentration of drug in the organic fluid, and (2) the concentration of dissolved neutral drug in the aqueous feed solution when the two solutions are at equilibrium. The partition coefficient can be estimated from the ratio of (1) the solubility of drug in the organic fluid and (2) the solubility of the dissolved drug in the aqueous feed solution.
The organic fluid consisted of 4 mL of decanol, which was added to the permeate reservoir. […] An overhead stirrer was used to stir the decanol permeate solution at 100 rpm.
The organic fluid used in these tests consisted of 5 mL of 20 wt % decanol in decane.

[4] = not told, 120 μg/mL

CCOC(=O)N1c2ccc(C(F)(F)F)cc2[C@@H](N(Cc2cc(C(F)(F)F)cc(C(F)(F)F)c2)C(=O)OC)C[C@H]1CC [Drug 1, [2R,4S]4-[(3,5-bis-trifluoromethyl-benzyl)-methoxycarbonyl-amino]-2-ethyl-6-trifluoromethyl-3,4-dihydro-2H-quinoline-1-carboxylic acid ethyl ester]
Maximum Flux of Drug ([1]; 25 μg/mL Drug 1 added to the feed): 0.75 μg/cm^2-min | Maximum Flux of Drug ([1]; 50 μg/mL Drug 1 added to the feed): 1.5 μg/cm^2-min | Maximum Flux of Drug ([1]; 80 μg/mL Drug 1 added to the feed): 4.0 μg/cm^2-min | Maximum Flux of Drug ([1]; 200 μg/mL Drug 1 added to the feed): 7.1 μg/cm^2-min | Maximum Flux of Drug ([1]; 400 μg/mL Drug 1 added to the feed): 12.6 μg/cm^2-min | Maximum Flux of Drug ([1]; 700 μg/mL Drug 1 added to the feed): 26 μg/cm^2-min | Maximum Flux of Drug ([1]; 1000 μg/mL Drug 1 added to the feed): 32 μg/cm^2-min | Tmax ([2]; oral OPC 90 mgA Drug 1): 2.3 ± 1.9 h | AUC(0-t) ([2]; oral OPC 90 mgA Drug 1, read-out: AUC0-24): 928 ± 642 µg·h/mL | Cmax ([2]; oral OPC 90 mgA Drug 1, read-out: Cmax,24): 191 ± 55 µg/mL | solubility (physchem; aqueous buffer, aqueous solubility in PBS): < 4e-05 mg/mL | solubility (physchem; organic solvent or mixture, solubility in decanol): > 25 mg/mL | solubility (physchem; organic solvent or mixture, solubility in organic fluid): ~25 mg/mL (≈ 41.6 mM) | solubility (physchem; water, aqueous solubility (solubility in water)): < 4e-05 mg/mL | partition coefficient between the organic fluid and water [3]: greater than 650,000 | partition coefficient of the drug between the organic fluid and PBS [3]: greater than 650,000 | Maximum Flux of Drug 1 [4]: 0.012 μg/cm^2-min | maximum flux in solution modeling the fed state relative to MFD solution [4]: 7,6 fold
